# From PubChem BioAssay AID330 (DTP/NCI, 2004)
# Where “and” joins values, the source holds several entries; their conditions need not be identical. Identical values can stand only once. Inconclusive results and toxic doses are left out.
# System: P388 leukemia ip, CD2F1 mice, survival T/C
# Test: NCI In Vivo Anticancer Drug Screen. Data for tumor model P388 Leukemia (intraperitoneal) in CD2F1 (CDF1) mice
# Details: endpoint: median survival time, higher = longer survival
# Method in brief: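 Mice carrying the transplanted tumor received test compound or vehicle. Survival was recorded in each group, and the value is the treated-group measurement divided by that of the vehicle-treated control group.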
# [1] = dose: 25.0 mg/kg/injection, schedule: Q01DX009 (ip), vehicle: water
# [2] = dose: 50.0 mg/kg/injection, schedule: Q01DX009 (ip), vehicle: water
# [3] = dose: 100.0 mg/kg/injection, schedule: Q01DX009 (ip), vehicle: water
# [4] = dose: 200.0 mg/kg/injection, schedule: Q01DX009 (ip), vehicle: water
# [5] = dose: 50.0 mg/kg/injection, schedule: Q01DX009 (ip), vehicle: saline
# [6] = dose: 100.0 mg/kg/injection, schedule: Q01DX009 (ip), vehicle: saline
# [7] = dose: 12.5 mg/kg/injection, schedule: Q01DX009 (ip), vehicle: Klucel (hydroxypropylcellulose) (HPC)
# [8] = dose: 100.0 mg/kg/injection, schedule: Q04DX003 (ip), vehicle: saline with Tween-80
compound,measurement,setting,value
O=C(O)CSc1nc(-c2ccccc2)c(-c2ccccc2)n1-c1ccccn1,T/C,[1],103 % of control and 124 % of control
same,T/C,[2],108 % of control and 97 % of control
same,T/C,[3],118 % of control and 122 % of control and 86 % of control
same,T/C,[4],115 % of control and 86 % of control
CC(=O)N(C)c1ccc(NC(=O)Nc2cc(C)ccc2C)cc1,T/C,[5],91 % of control
same,T/C,[6],88 % of control
O=C(c1ccccc1)c1ccc[n+](Cc2ccccc2)c1,T/C,"dose: 25.0 mg/kg/injection, schedule: Q01DX005 (ip), vehicle: saline",100 % of control
same,T/C,"dose: 50.0 mg/kg/injection, schedule: Q01DX005 (ip), vehicle: saline",111 % of control
same,T/C,"dose: 100.0 mg/kg/injection, schedule: Q01DX005 (ip), vehicle: saline",109 % of control
C(=N\Nc1nc2ccccc2s1)/c1cccs1,T/C,[5],100 % of control
same,T/C,[6],87 % of control
same,T/C,"dose: 200.0 mg/kg/injection, schedule: Q01DX009 (ip), vehicle: saline",106 % of control
C/C(=C\COc1ccc2ccc(=O)oc2c1)C1=CC(=O)C(C)(C)O1,T/C,"dose: 266.0 mg/kg/injection, schedule: Q01DX009 (ip), vehicle: saline with Tween-80",115 % of control
same,T/C,"dose: 400.0 mg/kg/injection, schedule: Q01DX009 (ip), vehicle: saline with Tween-80",114 % of control
same,T/C,"dose: 600.0 mg/kg/injection, schedule: Q01DX009 (ip), vehicle: saline with Tween-80",123 % of control
COc1cc(Cc2nccc3cc(OC)c(OC)cc23)c(C(C)=O)cc1OC,T/C,"dose: 3.13 mg/kg/injection, schedule: Q01DX009 (ip), vehicle: saline sonified",123 % of control
same,T/C,[7],105 % of control
same,T/C,"dose: 12.5 mg/kg/injection, schedule: Q01DX009 (ip), vehicle: saline sonified",161 % of control
same,T/C,"dose: 25.0 mg/kg/injection, schedule: Q01DX009 (ip), vehicle: Klucel (hydroxypropylcellulose) (HPC)",106 % of control
same,T/C,"dose: 50.0 mg/kg/injection, schedule: Q01DX009 (ip), vehicle: Klucel (hydroxypropylcellulose) (HPC)",113 % of control
same,T/C,[8],100 % of control
CC(C)(C)N1CC(C(=O)c2ccccc2)C1c1ccccc1 (stereo unspecified),T/C,"dose: 50.0 mg/kg/injection, schedule: Q04DX003 (ip), vehicle: saline with Tween-80",100 % of control
same,T/C,[8],98 % of control
same,T/C,"dose: 200.0 mg/kg/injection, schedule: Q04DX003 (ip), vehicle: saline with Tween-80",97 % of control
same,T/C,"dose: 400.0 mg/kg/injection, schedule: Q04DX003 (ip), vehicle: saline with Tween-80",97 % of control
COc1cc2c(c(OC)c1OC)-c1ccc(N)c(=O)cc1[C@@H](NC(C)=O)CC2,T/C,"dose: 0.5 mg/kg/injection, schedule: Q01DX010 (ip), vehicle: saline",109 % of control
same,T/C,"dose: 1.0 mg/kg/injection, schedule: Q01DX010 (ip), vehicle: saline",118 % of control
same,T/C,"dose: 3.12 mg/kg/injection, schedule: Q01DX009 (ip), vehicle: Klucel (hydroxypropylcellulose) (HPC)",86 % of control
same,T/C,"dose: 6.25 mg/kg/injection, schedule: Q01DX009 (ip), vehicle: Klucel (hydroxypropylcellulose) (HPC)",108 % of control
Fc1ccc(NC(=S)SCc2ccc(Cl)c(Cl)c2)cc1F,T/C,[7],124 % of control
same,T/C,"dose: 100.0 mg/kg/injection, schedule: Q01DX009 (ip), vehicle: Klucel (hydroxypropylcellulose) (HPC)",116 % of control and 96 % of control
CCCCCCC[CH2][Sn](=[O])[CH2]CCCCCCC,T/C,"dose: 12.5 mg/kg/injection, schedule: Q01DX009 (ip), vehicle: saline",100 % of control
same,T/C,"dose: 25.0 mg/kg/injection, schedule: Q01DX009 (ip), vehicle: saline",116 % of control
same,T/C,"dose: 50.0 mg/kg/injection, schedule: Q01DX009 (ip), vehicle: saline with Tween-80",101 % of control
same,T/C,[5],100 % of control
CC(=O)NCCc1nc(-c2nc(C(=O)NCCCCN)cs2)cs1,T/C,"dose: 12.5 mg/kg/injection, schedule: Q01DX009 (ip), vehicle: water",100 % of control
same,T/C,[1],98 % of control and 109 % of control
same,T/C,[2],100 % of control and 113 % of control
same,T/C,[3],103 % of control and 119 % of control
same,T/C,[4],107 % of control
same,T/C,"dose: 400.0 mg/kg/injection, schedule: Q01DX009 (ip), vehicle: water",104 % of control
